Laboratory results reported in paper PMC8838982 (Bioorganic chemistry, 2021).
Several values for one entry are separate records, joined by “and”; a condition that tells them apart may be missing. Equal values may be shown once.

Experiments:
Format in all cases: cell-based, influenza virus A/PR/8/34
[1] = system: PA-mutant V122T influenza virus polymerase
[2] = system: PA-mutant R84L influenza virus polymerase
[3] = system: PA-mutant R124Q influenza virus polymerase
[4] = system: PA-mutant K137L influenza virus polymerase
[5] = system: PA-mutant H41A influenza virus polymerase
[6] = system: PA-mutant I120T influenza virus polymerase
[7] = system: PA-mutant G81T influenza virus polymerase
[8] = system: PA-mutant L42T influenza virus polymerase
[9] = system: PA-mutant T20A influenza virus polymerase
[10] = system: PA-I38T mutant influenza virus polymerase

Compound: O=C1c2c(ccc(O)c2O)CN1Cc1ccc(O)cc1 [Compound 17, 2-(4-hydroxybenzyl)-6,7-dihydroxy-isoindolin-1-one]
- Fold increase in EC50 compared to wild-type [1]: 4.2 fold
- Fold increase in EC50 compared to wild-type [2]: 4 fold and 3.8 fold
- Fold increase in EC50 compared to wild-type [3]: 5.0 fold
- Fold increase in EC50 compared to wild-type [4]: 4.5 fold
- Fold increase in EC50 compared to wild-type [5]: 4.9 fold
- Fold increase in EC50 compared to wild-type [6]: 6.1 fold
- Fold increase in EC50 compared to wild-type [7]: 6.1 fold
- Fold increase in EC50 compared to wild-type [8]: 2.5 fold

Compound: NC(=O)c1ncn([C@@H]2O[C@H](CO)[C@@H](O)[C@H]2O)n1 [Ribavirin, ribavirin]
- Fold increase in EC50 compared to wild-type [1]: 1.2 fold
- Fold increase in EC50 compared to wild-type [2]: 1.1 fold
- Fold increase in EC50 compared to wild-type [9]: 1.0 fold
- Fold increase in EC50 compared to wild-type [3]: 1.1 fold
- Fold increase in EC50 compared to wild-type [4]: 1.3 fold
- Fold increase in EC50 compared to wild-type [5]: 0.8 fold
- Fold increase in EC50 compared to wild-type [6]: 1.0 fold
- Fold increase in EC50 compared to wild-type [7]: 0.9 fold
- Fold increase in EC50 compared to wild-type [8]: 0.9 fold

Compound: baloxavir acid [BXA]
- Fold increase in EC50 compared to wild-type [1]: 0.7 fold
- Fold increase in EC50 compared to wild-type [2]: 0.2 fold
- Fold increase in EC50 compared to wild-type [9]: 0.3 fold
- Fold increase in EC50 compared to wild-type [10]: 65 fold
- Fold increase in EC50 compared to wild-type [3]: 0.5 fold
- Fold increase in EC50 compared to wild-type [5]: 0.2 fold
- Fold increase in EC50 compared to wild-type [6]: 0.7 fold
- Fold increase in EC50 compared to wild-type [7]: 0.2 fold
- Fold increase in EC50 compared to wild-type [8]: 1.1 fold
